Consider 1 compound from US6403116B1, “Coenzyme Q10 formulation” (Triarco Inductries, Inc., priority 2000, dated 2002).

Read-outs that look alike come from different tables or passages of the source.

Data set [1] in a line: Coenzyme Q10 added separately to aqueous solutions of the other composition ingredients. The note with it: 5 mg coenzyme Q10 added to 100 mL of 1%, 2.5% and 5% aqueous solutions of all ingredients except coenzyme Q10. The data set is classed as physicochemical. On the procedure:
To test this theory a 1%, 2.5% and 5% aqueous solutions of the all the composition ingredients except coenzyme Q10 were made in 100 mL volumetric flasks. A 5 mg aliquot of coenzyme Q10 was then separately added to each of the flasks and shaken.

Data set [2] in a line: Water solubility of coenzyme Q10 alone. The format is physicochemical.
The conditions of data set [3]: as disclosed in WO 95/05164; cited from earlier work.

As for `COC1=C(OC)C(=O)C(C/C=C(\C)CC/C=C(\C)CC/C=C(\C)CC/C=C(\C)CC/C=C(\C)CC/C=C(\C)CC/C=C(\C)CC/C=C(\C)CC/C=C(\C)CCC=C(C)C)=C(C)C1=O` [coenzyme Q10, 2,3-dimethoxy-5-methyl-6-decaprenyl-1,4-benzoquinone], in data set [1], the “behaviour in ultra sound bath” value is “dispersed then settled to the bottom of the flask” and the “dissolution or dispersion after shaking” value is reported as “did not go into solution or form a dispersion”. The water solubility result in data set [2] was “not water soluble at any level”. Moreover, the water solubility result in data set [3] is on record as “practically insoluble in water”.
